Source: patent US9782516B2, “Tissue adhesive coatings for drug coated balloon” (ABBOTT CARDIOVASCULAR SYSTEMS INC., priority 2013, dated 2017)

Columns and labels:
[1] = in vivo
[2] = Percent of dose in the vessel from pure zotarolimus coated coronary balloon with stent (FIG. 2); type: in vivo
Procedure: FIG. 2 is a graph illustrating percent transfer efficiency as a function of time for pure zotarolimus coatings on a zotarolimus coated balloon.
(§1) With a stent on a coronary balloon, the percent of dose in the vessel from a pure zotarolimus coated balloon was measured at about 30 minutes, 1 day, and 7 days.

[3] = Drug transfer efficiency of drug coated balloons (Table 1); type: in vivo; conditions: balloon 3 × 12 mm, coronary, 20% overstretch, stent present, inflation 30 s, time point 30 minutes
Procedure: For purpose of explanation, and not limitation, of the disclosed subject matter, reference is now made to a comparative study between paclitaxel and zotarolimus.
as §1

whole blood = assay: Acute thrombogenicity of stents in whole blood via the Chandler Loop (FIG. 5); conditions: drug coated stents in whole blood; compared to zotarolimus
[4] = Percent tissue uptake from paclitaxel coated balloon (FIG. 3); type: in vivo; conditions: porcine coronary arteries, day 1 (24 hours)

SMILES | histology evidence of coating fragments adhering to a vessel wall [1] | percent drug in tissue over time ([2]; coronary balloon with stent, measured at about 30 minutes, 1 day and 7 days) | tissue uptake ([2]; pure zotarolimus coated coronary balloon with stent, 652 μg dose, day 1 (24 hours)) | Percent transfer efficiency ([3]; dose 104 μg/cm^2) | Percent transfer efficiency ([3]; dose 576 μg/cm^2) | acute thrombogenicity as measured by lactate dehydrogenase (LDH) (whole blood) | tissue uptake [4]
CO[C@H]1C[C@@H]2CC[C@@H](C)[C@@](O)(O2)C(=O)C(=O)N2CCCC[C@H]2C(=O)O[C@H]([C@H](C)C[C@@H]2CC[C@H](n3cnnn3)[C@H](OC)C2)CC(=O)[C@H](C)/C=C(\C)[C@@H](O)[C@@H](OC)C(=O)[C@H](C)C[C@H](C)/C=C/C=C/C=C/1C [Pure Zotarolimus, zotarolimus] | no apparent histology evidence | rapid decrease in the percent drug in tissue | about 0.56% | 4.7 | 5.2 |  | 
CC(=O)O[C@H]1C(=O)[C@@]2(C)[C@H]([C@H](OC(=O)c3ccccc3)[C@]3(O)C[C@H](OC(=O)[C@H](O)[C@@H](NC(=O)c4ccccc4)c4ccccc4)C(C)=C1C3(C)C)[C@]1(OC(C)=O)CO[C@@H]1C[C@@H]2O [paclitaxel] |  |  |  |  |  | more thrombogenic | about 2%
